{"source": "patent US20190046490A1", "about": "“METHODS OF TREATING LACTOSE INTOLERANCE” (Nogra Pharma Limited, priority 2016, published 2019)", "key": {"[1]": {"tested_on": "weaned rats fed with a lactose-enriched diet", "assay": "Symptoms associated with lactose intolerance in weaned rats fed a lactose-enriched diet", "format": "in vivo", "conditions": "rats on lactose-enriched diet", "procedure": "Animal experiments were performed in the accredited Pasteur Institute animal care facility (Institut Pasteur de Lille, France; n° B59-35009) according to governmental guidelines (n° 2010/63/UE; Décret 2013-118) and animal ethics committee approval. Specific pathogen-free male C57BL/6 mice and Sprague-Dawley rats were obtained from Janvier Labs (France). Mice and rats were housed 5 animals/cage and 3 animals/cage, respectively, in a specific pathogen-free facility, in an air-conditioned room with controlled temperature (22±1° C.), humidity (65-70%), and 12 h light/12 h dark cycles. Animals were fed with standard laboratory chow (except when indicated) and were provided with autoclaved tap water ad libitum. Animals were acclimatized for at least 1 week before entering the study.\nIn addition, the effect of GED on the symptoms associated with lactose intolerance was evaluated in weaned rats fed with a lactose-enriched diet provided by Ssniff Spezialdiäten GmbH (Soest, Germany). Animals were monitored daily, weighed, and stool consistencies were evaluated.\nSCFA were extracted and measured as described in […], which is incorporated herein by reference."}, "LCT mRNA": {"tested_on": "LCT mRNA", "assay": "Quantitative PCR of LCT mRNA expression in Caco-2 cells", "format": "cell-based, human", "procedure": "Caco-2 (colonic adenocarcinoma) cells were grown in Dulbecco's Modified Eagle's Medium (DMEM, Invitrogen, Life Technologies, Cergy-Pontoise, France) supplemented with 20% foetal calf serum (FCS, Dutscher, Brumath, France), 1% penicillin-streptomycin (5 ml/l) (Invitrogen, Life technologies) and 1% non-essential amino acids (5 ml/l) (Invitrogen, Life technologies). All cell lines were cultured as confluent monolayers at 37° C. in a controlled, 5% CO2 atmosphere.\nFor cell stimulations, 1×10^6 cells per well were seeded in 6-well plates. Cells were serum deprived for 16 hours prior to stimulation in order to synchronize the cells. Cells were treated with GED (Nogra Pharma Ltd, Ireland), pioglitazone (1 μM, Sigma-Aldrich) or CLA (various concentrations, Sigma-Aldrich). When necessary, the DMSO vehicle (Sigma-Aldrich) was used as control. After 24 hours of stimulation, cells were washed three times with sterile PBS before RNA extraction. Cell stimulations were performed in 4 replicates for microarray analysis and in 3, 4 or 6 replicates for other stimulations.\nCells were lysed with lysis buffer (RA1, Macherey-Nagel) containing 1% β-mercaptoethanol. Total RNA was extracted with a Nucleospin RNA kit (Macherey-Nagel, Hoerdt, France). After RNAse inactivation, total RNA was cleaned of genomic DNA traces by DNAse treatment and eluted in RNAse-free, DEPC-water. The purity of the RNA was evaluated by UV spectroscopy on a Nanodrop system (Nyxor Biotech, Paris, France) from 220 to 350 nm. Before microarray experiments, RNAs were also profiled on an Agilent 2100 bioanalyzer. One μg of total RNA with a minimum concentration of 50 ng/μl was used in the microarray and qRT-PCR analysis.\nExpression of genes of interest was quantified by quantitative PCR (qPCR) of corresponding reverse transcribed mRNA. One μg of total RNA was reverse-transcribed into cDNA using the High Capacity cDNA Archive kit (Applied Biosystems). Amplification was performed using an ABI PRISM 7000 sequence detection system (Applied Biosystem) using Power SYBR® Green PCR master Mix (Applied Biosystem). Primer pairs for each human transcript were chosen with qPrimer depot software (at primerdepot.nci.nih.gov.). Quantification of qPCR signals was performed using ΔCt relative quantification method using GAPDH as a reference gene for human and rat samples and β-Actin for mouse samples. Values were represented in terms of relative quantity of mRNA level variation or fold increase compared to control conditions."}}, "note": "“Also recorded” adds a separate entry of the source.", "data": [{"compound": "COC(Cc1ccc(N)cc1)C(=O)O", "note": "(stereo not shown) [GED, 3-(4′-aminophenyl)2-methoxypropionic acid]", "values": [{"measurement": "concentration of short-chain fatty acids (SCFA) in caecal contents", "setting": "[1]; day 4", "result": "significant decrease"}, {"measurement": "caecum volume compared to untreated rats", "setting": "[1]; sacrificed at day 4, data not shown", "result": "significant decrease"}, {"measurement": "LCT mRNA gene expression relative to unstimulated cells, dose-response", "setting": "LCT mRNA; 0.1 mM, 1 mM, and 30 mM", "result": "increased"}, {"measurement": "LCT mRNA expression relative to control (qPCR)", "setting": "LCT mRNA; 30 mM, 24 hours, normalized to GAPDH", "result": "Significant increases; also recorded: induction"}]}]}
